Columns and labels:
[1] = molecular target: T1, IL-17A(FLAG-Tagged): IL-17RA(His-Tagged) binding (Homo sapiens, UniProt Q16552, K93Q); experiment: IL-17A(FLAG-tagged):IL-17RA(His-tagged) binding disruption Eu-HTRF assay, Protocol 1; conditions: FLAG-IL-17A 2.5 nM; average if tested more than once
Source text: IL-17A(FLAG-Tagged): IL-17RA(His-Tagged) Binding Disruption Eu-HTRF Assay
An antibody directed against the FLAG tag of IL-17A (SEQ ID NO: 1) is labeled with the HTRF donor chromophore (Europium-cryptate). IL-17A is present as a dimer that is “locked into” this quaternary structure due to the formation of loop-spanning […] disulfide bridges. The construct of IL-17RA used in the assay excludes the […] portion of the receptor and is fused to a C-terminal 10×His tag (SEQ ID NO:2). An antibody directed against the His tag of the IL-17RA chimera is labeled with the HTRF acceptor chromophore (“D2”). The fluorescence-resonance energy transfer (FRET) depends on the vicinity of the donor chromophore to the acceptor, and interruption of the binding between the IL-17A and IL-17RA causes the reduction/loss of FRET. Therefore, this assay allows to evaluate the compound effect on the binding IL-17A and IL-17RA by monitoring the fluorescence intensity of donor vs acceptor. The assay was run using either Protocol 1 or Protocol 2 as described below.
Protocol 1. 40 nl of 2-fold serial diluted compound solution for total 22 dilution points is added into each well of a 1536-well, white, low-volume, non-binding plate (Greiner #782904), then 2 μl of FLAG tagged IL-17A at 2×final concentration (2.5 nM) in solution of PBS+0.01% Triton-X100 is added to each well. The assay plate is briefly centrifuged then incubated for 1 h at rt. A mixed solution is prepared containing 2×5 nM 10HIS×IL-17RA, 2×2.5 nM Eu-anti-FLAG (CISBIO), 2×5 nM D2-anti-HIS (CISBIO) in PBS+0.01% Triton-X100+200 mM Potassium Fluoride (Sigma 60238) and 2 μl of mix is added to each well of the assay plate. The plate is briefly centrifuged then incubated for 2 h at rt. The HTRF intensities at the wavelength of donor (620 nm) and acceptor (665 nm) are measured using BMG Pherastar. The ratio between intensities at two wavelengths is calculated and plotted against the compound concentration and the data is fitted to a one-site competition model to yield IC50 of the compound.

[2] = test system: IL-17A-induced G-CSF production in human normal keratinocyte (NHK); experiment: NHK assay: IL-17A-induced G-CSF production in normal human keratinocytes; assay type: cell-based; conditions: 24 h, IL-17A 5 ng/mL, G-CSF by HTRF, average if tested more than once
Procedure, shortened: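 Compound titrations are first mixed with recombinant human IL-17A for 1 h at room temperature. The mixture goes onto adult normal human keratinocytes (final IL-17A 5 ng/mL, 5% FBS, 0.2% DMSO) for 24 h at 37 °C. Secreted G-CSF is then measured by HTRF and IC50 fitted.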

[3] = molecular target: T1, IL-17A(FLAG-Tagged): IL-17RA(His-Tagged) binding; experiment: IL-17A(FLAG-tagged):IL-17RA(His-tagged) binding disruption Eu-HTRF assay, Protocol 2; conditions: FLAG-IL-17A 1 nM; average if tested more than once
Procedure, shortened: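 FLAG-tagged IL-17A (1 nM final) was preincubated with compound (2-fold serial dilutions, 22 points) for 1 h at rt in PBS + 0.01% Triton X-100. 10×His-IL-17RA, Eu-anti-FLAG and D2-anti-His in buffer containing KF were then added for 2 h at rt. IC50 came from the 665/615 nm HTRF ratio fitted to a one-site competition model.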

T1 sequence (Q16552 with tags, fused parts or gaps K93Q): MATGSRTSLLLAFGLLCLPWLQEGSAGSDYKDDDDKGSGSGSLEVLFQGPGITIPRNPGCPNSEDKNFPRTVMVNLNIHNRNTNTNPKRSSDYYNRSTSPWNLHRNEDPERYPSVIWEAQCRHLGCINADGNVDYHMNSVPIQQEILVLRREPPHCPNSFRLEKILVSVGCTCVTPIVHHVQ

In the case of `CC1(F)CNC(=O)N(Cc2cnn3cc([C@@H](NC(=O)c4nonc4C4CC4)C4CCC(F)(F)CC4)nc3c2)C1` (single isomer, unassigned) [Example 1, 4-Cyclopropyl-N—((S)-(4,4-difluorocyclohexyl)(7-(((R*)-5-fluoro-5-methyl-2-oxotetrahydropyrimidin-1(2H)-yl)methyl)imidazo[1,2-b]pyridazin-2-yl)methyl)-1,2,5-oxadiazole-3-carboxamide], the IC50 [1] is reported as under 50 nM and the IC50 ([2]; Homo sapiens, Keratinocyte) is reported as over 100 nM.
Work on `CC1(F)CNC(=O)N(Cc2cnn3cc([C@@H](NC(=O)c4nonc4C4CC4)C4CCC(F)(F)CC4)nc3c2)C1` (single isomer, unassigned) [Example 2, 4-Cyclopropyl-N—((S)-(4,4-difluorocyclohexyl)(7-(((S*)-5-fluoro-5-methyl-2-oxotetrahydropyrimidin-1(2H)-yl)methyl)imidazo[1,2-b]pyridazin-2-yl)methyl)-1,2,5-oxadiazole-3-carboxamide] yielded an IC50 [1] of 50 to 100 nM and an IC50 [2] of over 100 nM.
`O=C(N[C@H](c1cn2ncc(CN3CC(C(F)(F)F)CNC3=O)cc2n1)C1CCC(F)(F)CC1)c1nonc1C1CC1` (single isomer, unassigned) [Example 5, 4-Cyclopropyl-N—((S)-(4,4-difluorocyclohexyl)(7-(((S*)-2-oxo-5-(trifluoromethyl)tetrahydropyrimidin-1(2H)-yl)methyl)imidazo[1,2-b]pyridazin-2-yl)methyl)-1,2,5-oxadiazole-3-carboxamide] was tested, and the IC50 [1] was under 50 nM and the IC50 [2] was 50 to 100 nM.
In the case of `O=C(N[C@H](c1cn2ncc(CN3CC(C(F)(F)F)CNC3=O)cc2n1)C1CCC(F)(F)CC1)c1nonc1C1CC1` (single isomer, unassigned) [Example 6, 4-Cyclopropyl-N—((S)-(4,4-difluorocyclohexyl)(7-(((R*)-2-oxo-5-(trifluoromethyl)tetrahydropyrimidin-1(2H)-yl)methyl)imidazo[1,2-b]pyridazin-2-yl)methyl)-1,2,5-oxadiazole-3-carboxamide], the IC50 [1] is reported as over 100 nM and the IC50 ([2]; Homo sapiens, Keratinocyte) is reported as over 100 nM.
Compound `COCC(c1cnn2cc([C@H](COC(C)(C)C(F)(F)F)NC(=O)c3nonc3C)nc2c1)N1CC(F)(F)CNC1=O` (single isomer, unassigned) [Example 15, N—((R)-1-(7-((S*)-1-(5,5-Difluoro-2-oxotetrahydropyrimidin-1(2H)-yl)-2-methoxyethyl)imidazo[1,2-b]pyridazin-2-yl)-2-((1,1,1-trifluoro-2-methylpropan-2-yl)oxy)ethyl)-4-methyl-1,2,5-oxadiazole-3-carboxamide] has an IC50 [1] of under 50 nM and an IC50 ([2]; Homo sapiens, Keratinocyte) of under 50 nM.
Compound `CC1CNC(=O)N(Cc2cnn3cc([C@@H](NC(=O)c4nonc4C4CC4)C4CCC(F)(F)CC4)nc3c2)C1` (single isomer, unassigned) [Example 28, 4-Cyclopropyl-N—((S)-(4,4-difluorocyclohexyl)(7-(((S*)-5-methyl-2-oxotetrahydropyrimidin-1(2H)-yl)methyl)imidazo[1,2-b]pyridazin-2-yl)methyl)-1,2,5-oxadiazole-3-carboxamide] has an IC50 [1] of under 50 nM and an IC50 ([2]; Homo sapiens, Keratinocyte) of over 100 nM.
Compound `CC1CNC(=O)N(Cc2cnn3cc([C@@H](NC(=O)c4nonc4C4CC4)C4CCC(F)(F)CC4)nc3c2)C1` (single isomer, unassigned) [Example 29, 4-Cyclopropyl-N—((S)-(4,4-difluorocyclohexyl)(7-(((R*)-5-methyl-2-oxotetrahydropyrimidin-1(2H)-yl)methyl)imidazo[1,2-b]pyridazin-2-yl)methyl)-1,2,5-oxadiazole-3-carboxamide] has an IC50 [1] of over 100 nM and an IC50 [2] of over 100 nM.
`CC(c1cnn2cc([C@@H](NC(=O)c3nonc3C3CC3)C3CCC(F)(F)CC3)nc2c1)N1CC(F)(F)CNC1=O` (single isomer, unassigned) [Example 92, 4-Cyclopropyl-N—((S)-(7-((S*)-1-(5,5-difluoro-2-oxotetrahydropyrimidin-1(2H)-yl)ethyl)imidazo[1,2-b]pyridazin-2-yl)(4,4-difluorocyclohexyl)methyl)-1,2,5-oxadiazole-3-carboxamide] gave an IC50 [1] of over 100 nM and an IC50 ([2]; Homo sapiens, Keratinocyte) of over 100 nM.
`Cc1nonc1C(=O)N[C@H](c1cn2ncc(C(C)N3CC(F)(F)CNC3=O)cc2n1)C1CCC(F)(F)CC1` (single isomer, unassigned) [Example 93, N—((S)-(7-((S*)-1-(5,5-Difluoro-2-oxotetrahydropyrimidin-1(2H)-yl)ethyl)imidazo[1,2-b]pyridazin-2-yl)(4,4-difluorocyclohexyl)methyl)-4-methyl-1,2,5-oxadiazole-3-carboxamide] was tested, and the IC50 [1] was over 100 nM and the IC50 ([2]; Homo sapiens, Keratinocyte) was over 100 nM.
`CC1CCCN(Cc2cnn3cc([C@@H](NC(=O)c4ccnn4C(C)C)C4CCC(F)(F)CC4)nc3c2)C(=O)N1` (single isomer, unassigned) [Example 94, N—((S)-(4,4-Difluorocyclohexyl)(7-(((R*)-4-methyl-2-oxo-1,3-diazepan-1-yl)methyl)imidazo[1,2-b]pyridazin-2-yl)methyl)-1-isopropyl-1H-pyrazole-5-carboxamide] showed an IC50 [1] of over 100 nM and an IC50 ([2]; Homo sapiens, Keratinocyte) of over 100 nM.
Work on `CC1CCCN(Cc2cnn3cc([C@@H](NC(=O)c4ccnn4C(C)C)C4CCC(F)(F)CC4)nc3c2)C(=O)N1` (single isomer, unassigned) [Example 95, N—((S)-(4,4-Difluorocyclohexyl)(7-(((S*)-4-methyl-2-oxo-1,3-diazepan-1-yl)methyl)imidazo[1,2-b]pyridazin-2-yl)methyl)-1-isopropyl-1H-pyrazole-5-carboxamide] yielded an IC50 [1] of over 100 nM and an IC50 [2] of over 100 nM.
Compound `CC1CCCN(Cc2cnn3cc([C@@H](NC(=O)c4nonc4C4CC4)C4CCC(F)(F)CC4)nc3c2)C(=O)N1` (single isomer, unassigned) [Example 96, 4-Cyclopropyl-N—((S)-(4,4-difluorocyclohexyl)(7-(((R*)-4-methyl-2-oxo-1,3-diazepan-1-yl)methyl)imidazo[1,2-b]pyridazin-2-yl)methyl)-1,2,5-oxadiazole-3-carboxamide] has an IC50 [1] of under 50 nM and an IC50 ([2]; Homo sapiens, Keratinocyte) of over 100 nM.
For `CC1CCCN(Cc2cnn3cc([C@@H](NC(=O)c4nonc4C4CC4)C4CCC(F)(F)CC4)nc3c2)C(=O)N1` (single isomer, unassigned) [Example 97, 4-Cyclopropyl-N—((S)-(4,4-difluorocyclohexyl)(7-(((S*)-4-methyl-2-oxo-1,3-diazepan-1-yl)methyl)imidazo[1,2-b]pyridazin-2-yl)methyl)-1,2,5-oxadiazole-3-carboxamide], the IC50 [1] was 50 to 100 nM and the IC50 [2] was over 100 nM.
For `COC[C@H](c1cnn2cc([C@@H](NC(=O)c3nonc3C(C)(F)F)C3CCC(F)(F)CC3)nc2c1)N1CC(F)(F)CNC1=O` [Example 127, N—((S)-(7-((S)-1-(5,5-Difluoro-2-oxotetrahydropyrimidin-1(2H)-yl)-2-methoxyethyl)imidazo[1,2-b]pyridazin-2-yl)(4,4-difluorocyclohexyl)methyl)-4-(1,1-difluoroethyl)-1,2,5-oxadiazole-3-carboxamide], the IC50 ([2]; Homo sapiens, Keratinocyte) was under 50 nM and the IC50 [3] was under 50 nM.
For `COC[C@H](c1cnn2cc([C@@H](NC(=O)c3nonc3CC(F)(F)F)C3CCC(F)(F)CC3)nc2c1)N1CC(F)(F)CNC1=O` [Example 130, N—((S)-(7-((S)-1-(5,5-Difluoro-2-oxotetrahydropyrimidin-1(2H)-yl)-2-methoxyethyl)imidazo[1,2-b]pyridazin-2-yl)(4,4-difluorocyclohexyl)methyl)-4-(2,2,2-trifluoroethyl)-1,2,5-oxadiazole-3-carboxamide], the IC50 ([2]; Homo sapiens, Keratinocyte) was under 50 nM and the IC50 [3] was under 50 nM.
Work on “N—((S)-1-(7-((S)-2-Cyclopropoxy-1-(5,5-difluoro-2-oxotetrahydropyrimidin-1(2H)-yl-4,4,6,6-d4)ethyl)imidazo[1,2-b]pyridazin-2-yl)-5,5,5-trifluoro-4,4-dimethylpentyl)-1,2,5-oxadiazole-3-carboxamide trifluoroacetate [Example 131]” yielded an IC50 [2] of over 100 nM and an IC50 [3] of under 50 nM.

From patent US12173007B2, “Imidazopyridazine IL-17 inhibitor compounds” (Janssen Pharmaceutica NV, priority 2021, dated 2024)
